System: NCI-H196 complex spheroid growth, percent test/control
Assay: Anticancer human tumor NCI-H196 cell line growth inhibition [AhR];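 note: seven days of drug exposure starting three days after plating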;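 for viability, T/C: 100% = DMSO vehicle control wells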
Conditions: for IC50: curve of first compound; for viability, T/C: stronger effect = lower value
Method in brief: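 Complex tumor spheroids co-cultured with HUVEC and human MSC stroma; AhR antagonists tested in combination with standard-of-care and investigational agents. Top concentration at or near clinical Cmax (else 10 microM), half-log dilutions; growth expressed as percent test/control.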

[1] = second compound 0.1 µM, first compound 0.0316 µM
[2] = second compound 0.1 µM, first compound 0.1 µM
[3] = second compound 0.1 µM, first compound 0.316 µM
[4] = second compound 0.1 µM, first compound 1 µM
[5] = second compound 0.316 µM, first compound 0.0316 µM
[6] = second compound 0.316 µM, first compound 0.1 µM
[7] = second compound 0.316 µM, first compound 0.316 µM
[8] = second compound 0.316 µM, first compound 1 µM
[9] = second compound 1 µM, first compound 0.0316 µM
[10] = second compound 1 µM, first compound 0.1 µM
[11] = second compound 1 µM, first compound 0.316 µM
[12] = second compound 1 µM, first compound 1 µM
[13] = second compound 3.16 µM, first compound 0.0316 µM
[14] = second compound 3.16 µM, first compound 0.1 µM
[15] = second compound 3.16 µM, first compound 0.316 µM
[16] = second compound 3.16 µM, first compound 1 µM
[17] = second compound 10 µM, first compound 0.0316 µM
[18] = second compound 10 µM, first compound 0.1 µM
[19] = second compound 10 µM, first compound 0.316 µM
[20] = second compound 10 µM, first compound 1 µM

Structure (SMILES): CC1COCCN1c1cc(-c2ccnn2C)c2ccnc(-c3ccn[nH]3)c2n1 (stereo not given) + Cc1cncc(-c2nc(NCCc3c[nH]c4ccccc34)c3ncn(C(C)C)c3n2)c1
- IC50 (second compound 0.1 µM): > 1 µM
- IC50 (second compound 0.316 µM): > 1 µM
- IC50 (second compound 1 µM): > 1 µM
- IC50 (second compound 3.16 µM): > 1 µM
- IC50 (second compound 10 µM): > 1 µM
- viability, T/C (second compound 0.1 µM, first compound 0.00316 µM): 105%
- viability, T/C (second compound 0.1 µM, first compound 0.01 µM): 96.6%
- viability, T/C [1]: 86.5%
- viability, T/C [2]: 70%
- viability, T/C [3]: 62.4%
- viability, T/C [4]: 60.7%
- viability, T/C (second compound 0.316 µM, first compound 0.00316 µM): 95.5%
- viability, T/C (second compound 0.316 µM, first compound 0.01 µM): 94.1%
- viability, T/C [5]: 86.7%
- viability, T/C [6]: 71.2%
- viability, T/C [7]: 64.5%
- viability, T/C [8]: 52.7%
- viability, T/C (second compound 1 µM, first compound 0.00316 µM): 103%
- viability, T/C (second compound 1 µM, first compound 0.01 µM): 97.7%
- viability, T/C [9]: 96.4%
- viability, T/C [10]: 79.4%
- viability, T/C [11]: 70.9%
- viability, T/C [12]: 57.9%
- viability, T/C (second compound 3.16 µM, first compound 0.00316 µM): 106%
- viability, T/C (second compound 3.16 µM, first compound 0.01 µM): 123%
- viability, T/C [13]: 101%
- viability, T/C [14]: 88.8%
- viability, T/C [15]: 77.6%
- viability, T/C [16]: 58.2%
- viability, T/C (second compound 10 µM, first compound 0.00316 µM): 68.1%
- viability, T/C (second compound 10 µM, first compound 0.01 µM): 80.7%
- viability, T/C [17]: 75.7%
- viability, T/C [18]: 66%
- viability, T/C [19]: 80%
- viability, T/C [20]: 71.8%

Structure (SMILES): COc1ccc([C@@H](O)c2cc(-c3ncnc4cc(N5CCOCC5)ccc34)c(F)cc2Cl)nn1 + Cc1cncc(-c2nc(NCCc3c[nH]c4ccccc34)c3ncn(C(C)C)c3n2)c1
- IC50 (second compound 0.1 µM): > 10 µM
- IC50 (second compound 0.316 µM): > 10 µM
- IC50 (second compound 1 µM): > 10 µM
- IC50 (second compound 3.16 µM): > 10 µM
- IC50 (second compound 10 µM): > 10 µM
- viability, T/C [1]: 102%
- viability, T/C [2]: 101%
- viability, T/C [3]: 97%
- viability, T/C [4]: 91.4%
- viability, T/C (second compound 0.1 µM, first compound 3.16 µM): 78.7%
- viability, T/C (second compound 0.1 µM, first compound 10 µM): 84.7%
- viability, T/C [5]: 95.3%
- viability, T/C [6]: 99.6%
- viability, T/C [7]: 101%
- viability, T/C [8]: 97.7%
- viability, T/C (second compound 0.316 µM, first compound 3.16 µM): 92.6%
- viability, T/C (second compound 0.316 µM, first compound 10 µM): 80.7%
- viability, T/C [9]: 104%
- viability, T/C [10]: 111%
- viability, T/C [11]: 97.6%
- viability, T/C [12]: 87.3%
- viability, T/C (second compound 1 µM, first compound 3.16 µM): 95.5%
- viability, T/C (second compound 1 µM, first compound 10 µM): 84%
- viability, T/C [13]: 105%
- viability, T/C [14]: 108%
- viability, T/C [15]: 106%
- viability, T/C [16]: 94.2%
- viability, T/C (second compound 3.16 µM, first compound 3.16 µM): 94%
- viability, T/C (second compound 3.16 µM, first compound 10 µM): 94.2%
- viability, T/C [17]: 69.8%
- viability, T/C [18]: 90.4%
- viability, T/C [19]: 92.2%
- viability, T/C [20]: 77.7%
- viability, T/C (second compound 10 µM, first compound 3.16 µM): 77.8%
- viability, T/C (second compound 10 µM, first compound 10 µM): 71%

Source: PubChem BioAssay AID1919016 (Molecular Pharmacology Branch, DTP, NCI, 2023)
